System: MV-4-11 cells
Test: Gene expression microarray analysis (Affymetrix PrimeView) and GSEA
Type: cell-based, human
Design: RFU PODN (11730768_x_at) / Fold change /veh PODN (11730768_x_at) / RFU LINC00158 (11744669_a_at) / Fold change /veh LINC00158 (11744669_a_at) / RFU DUSP10 (11751237_a_at) / Fold change /veh DUSP10 (11751237_a_at) / RFU ID3 (11757404_x_at) / Fold change /veh ID3 (11757404_x_at) / RFU PLEKHG5 (11737974_s_at) / Fold change /veh PLEKHG5 (11737974_s_at) / RFU LRRC4B (11730491_at) / Fold change /veh LRRC4B (11730491_at) / RFU GIMAP4 (11747438_a_at) / Fold change /veh GIMAP4 (11747438_a_at) / RFU KRT8 (11758183_x_at) / Fold change /veh KRT8 (11758183_x_at) / RFU CNN1 (11734310_a_at) / Fold change /veh CNN1 (11734310_a_at) / RFU VPS37D (11726825_at) / Fold change /veh VPS37D (11726825_at) / RFU C10orf10 (11716522_x_at) / Fold change /veh C10orf10 (11716522_x_at) / RFU KIR2DL2 /// KIR2DL4 /// KIR2DL5A /// KIR2DL5B /// KIR2DS1 /// KIR2DS2 /// KIR2DS3 /// KIR2DS4 /// KIR3DL3 /// KIR3DL3 /// KIR3DS1 (11738374_at) / Fold change /veh KIR2DL2 /// KIR2DL4 /// KIR2DL5A /// KIR2DL5B /// KIR2DS1 /// KIR2DS2 /// KIR2DS3 /// KIR2DS4 /// KIR3DL3 /// KIR3DL3 /// KIR3DS1 (11738374_at) / RFU C1QL1 (11718748_at) / Fold change /veh C1QL1 (11718748_at) / RFU TMPRSS4 (11747572_a_at) / Fold change /veh TMPRSS4 (11747572_a_at) / RFU HAMP (11756126_x_at) / Fold change /veh HAMP (11756126_x_at) / RFU RNFT2 (11725882_a_at) / Fold change /veh RNFT2 (11725882_a_at) / RFU NR4A2 (11747474_a_at) / Fold change /veh NR4A2 (11747474_a_at) / RFU ABCC12 (11746883_a_at) / Fold change /veh ABCC12 (11746883_a_at) / RFU TMEM136 (11760407_x_at) / Fold change /veh TMEM136 (11760407_x_at) / RFU CLDN22 /// WWC2 (11732394_at) / Fold change /veh CLDN22 /// WWC2 (11732394_at) / RFU HLA-DPB1 (11760878_x_at) / Fold change /veh HLA-DPB1 (11760878_x_at) / RFU SPINT1 (11716480_a_at) / Fold change /veh SPINT1 (11716480_a_at) / RFU GAP43 (11754022_s_at) / Fold change /veh GAP43 (11754022_s_at) / RFU A4GNT (11735810_at) / Fold change /veh A4GNT (11735810_at) / RFU PRB3 (11715151_x_at) / Fold change /veh PRB3 (11715151_x_at) / RFU TUBB4B (11761932_at) / Fold change /veh TUBB4B (11761932_at) / RFU CAPN14 (11732068_a_at) / Fold change /veh CAPN14 (11732068_a_at) / RFU TMCC2 (11721928_a_at) / Fold change /veh TMCC2 (11721928_a_at) / RFU IRGQ (11745062_a_at) / Fold change /veh IRGQ (11745062_a_at) / RFU FAM174B (11720279_a_at) / Fold change /veh FAM174B (11720279_a_at) / RFU TMPRSS4 (11748680_a_at) / Fold change /veh TMPRSS4 (11748680_a_at) / RFU FAM212B (11763350_a_at) / Fold change /veh FAM212B (11763350_a_at) / RFU PLEKHG5 (11743358_a_at) / Fold change /veh PLEKHG5 (11743358_a_at) / RFU ZSCAN30 (11745921_a_at) / Fold change /veh ZSCAN30 (11745921_a_at) / RFU CMKLR1 (11741424_a_at) / Fold change /veh CMKLR1 (11741424_a_at) / RFU LOC101060620 /// MAPK8IP1 (11723275_at) / Fold change /veh LOC101060620 /// MAPK8IP1 (11723275_at) / RFU SPTSSB (11747773_x_at) / Fold change /veh SPTSSB (11747773_x_at) / RFU PRSS12 (11739890_at) / Fold change /veh PRSS12 (11739890_at) / RFU BIN1 (11741810_x_at) / Fold change /veh BIN1 (11741810_x_at) / RFU WNT11 (11732464_a_at) / Fold change /veh WNT11 (11732464_a_at) / RFU C10orf10 (11716521_a_at) / Fold change /veh C10orf10 (11716521_a_at) / RFU C5orf56 (11738089_at) / Fold change /veh C5orf56 (11738089_at) / RFU CYB561 (11721691_x_at) / Fold change /veh CYB561 (11721691_x_at) / RFU ANKRD19P (11752326_a_at) / Fold change /veh ANKRD19P (11752326_a_at) / RFU OR2T12 /// OR2T33 /// OR2T8 (11738714_s_at) / Fold change /veh OR2T12 /// OR2T33 /// OR2T8 (11738714_s_at) / RFU VCAN (11748164_a_at) / Fold change /veh VCAN (11748164_a_at) / RFU JSRP1 (11732532_at) / Fold change /veh JSRP1 (11732532_at) / RFU KRTAP10-11 (11738290_x_at) / Fold change /veh KRTAP10-11 (11738290_x_at) / RFU MYO3A (11730013_a_at) / Fold change /veh MYO3A (11730013_a_at) / RFU EBF3 (11725865_a_at) / Fold change /veh EBF3 (11725865_a_at) / RFU CAMK2N1 (11719241_x_at) / Fold change /veh CAMK2N1 (11719241_x_at) / RFU C5orf56 (11738088_a_at) / Fold change /veh C5orf56 (11738088_a_at) / RFU OLFML3 (11715873_a_at) / Fold change /veh OLFML3 (11715873_a_at) / RFU LOC100653217 /// NTM (11731650_a_at) / Fold change /veh LOC100653217 /// NTM (11731650_a_at) / RFU MAPK11 (11762145_a_at) / Fold change /veh MAPK11 (11762145_a_at) / RFU FIZ1 (11724087_x_at) / Fold change /veh FIZ1 (11724087_x_at) / RFU OASL (11726364_x_at) / Fold change /veh OASL (11726364_x_at) / RFU SOX15 (11748057_x_at) / Fold change /veh SOX15 (11748057_x_at) / RFU CD79A (11719716_a_at) / Fold change /veh CD79A (11719716_a_at) / RFU HIST1H1D (11736915_at) / Fold change /veh HIST1H1D (11736915_at) / RFU CASKIN2 (11723855_a_at) / Fold change /veh CASKIN2 (11723855_a_at) / RFU LOC730098 (11760151_x_at) / Fold change /veh LOC730098 (11760151_x_at) / RFU OR4N2 (11742367_at) / Fold change /veh OR4N2 (11742367_at) / RFU PRRT2 (11749266_a_at) / Fold change /veh PRRT2 (11749266_a_at) / RFU SNX32 (11753110_a_at) / Fold change /veh SNX32 (11753110_a_at) / RFU CDHR5 (11726645_a_at) / Fold change /veh CDHR5 (11726645_a_at) / RFU RCAN1 (11760418_a_at) / Fold change /veh RCAN1 (11760418_a_at) / RFU FAM167A (11723789_a_at) / Fold change /veh FAM167A (11723789_a_at) / RFU FAM26E (11764081_at) / Fold change /veh FAM26E (11764081_at) / RFU ISYNA1 (11749810_s_at) / Fold change /veh ISYNA1 (11749810_s_at) / RFU ACY1 (11761880_at) / Fold change /veh ACY1 (11761880_at) / RFU 11764098_at / Fold change /veh 11764098_at / RFU SAMD14 (11745864_x_at) / Fold change /veh SAMD14 (11745864_x_at) / RFU NPB (11741838_a_at) / Fold change /veh NPB (11741838_a_at) / RFU TMPRSS6 (11731388_a_at) / Fold change /veh TMPRSS6 (11731388_a_at) / RFU KRTAP10-2 (11738614_at) / Fold change /veh KRTAP10-2 (11738614_at) / RFU ARHGAP8 /// PRR5-ARHGAP8 (11727945_x_at) / Fold change /veh ARHGAP8 /// PRR5-ARHGAP8 (11727945_x_at) / RFU KRTAP5-7 /// NADSYN1 (11734609_at) / Fold change /veh KRTAP5-7 /// NADSYN1 (11734609_at) / RFU RASL12 (11751679_a_at) / Fold change /veh RASL12 (11751679_a_at) / RFU CDKN2B (11736163_a_at) / Fold change /veh CDKN2B (11736163_a_at) / RFU PRF1 (11729649_at) / Fold change /veh PRF1 (11729649_at) / RFU, ZNF638 /// ZNF638-IT1 / Fold change vs veh, ZNF638 /// ZNF638-IT1 / RFU, PANK3 / Fold change vs veh, PANK3 / RFU, SH3YL1 / Fold change vs veh, SH3YL1 / RFU, ZEB2 / Fold change vs veh, ZEB2 / RFU, NRIP1 / Fold change vs veh, NRIP1 / RFU, PTTG1IP / Fold change vs veh, PTTG1IP / RFU, CAPN2 / Fold change vs veh, CAPN2 / RFU, MED14 / Fold change vs veh, MED14 / RFU, SNORA58 / Fold change vs veh, SNORA58 / RFU, C1orf63 / Fold change vs veh, C1orf63 / RFU, LRRFIP1 / Fold change vs veh, LRRFIP1 / RFU, NDUFAF7 / Fold change vs veh, NDUFAF7 / RFU, SLC12A2 / Fold change vs veh, SLC12A2 / RFU, IBTK / Fold change vs veh, IBTK / RFU, ESF1 / Fold change vs veh, ESF1 / Fold change vs veh, TMEM50B / RFU, TAOK1 / Fold change vs veh, TAOK1 / RFU, ACBD3 / Fold change vs veh, ACBD3 / RFU, TMA16 / Fold change vs veh, TMA16 / RFU, RWDD3 / Fold change vs veh, RWDD3 / RFU, BCAT1 / Fold change vs veh, BCAT1 / RFU, EDEM3 / Fold change vs veh, EDEM3 / RFU, TMEM33 / Fold change vs veh, TMEM33 / RFU, WDR75 / Fold change vs veh, WDR75 / RFU, AHCTF1 / Fold change vs veh, AHCTF1 / RFU, TFRC / Fold change vs veh, TFRC / RFU, ZDHHC17 / Fold change vs veh, ZDHHC17 / RFU, NOM1 / Fold change vs veh, NOM1 / RFU, ARL8B / Fold change vs veh, ARL8B / RFU, ZBTB11 / Fold change vs veh, ZBTB11 / RFU, TAMM41 / Fold change vs veh, TAMM41 / RFU, KIAA1704 /// LOC100996395 / Fold change vs veh, KIAA1704 /// LOC100996395 / RFU, ING1 / Fold change vs veh, ING1 / RFU, TRMT61B / Fold change vs veh, TRMT61B / RFU, FUBP3 / Fold change vs veh, FUBP3 / RFU, TP53 / Fold change vs veh, TP53 / RFU, TNKS2 / Fold change vs veh, TNKS2 / RFU, ZFP14 / Fold change vs veh, ZFP14 / RFU, ACTR2 / Fold change vs veh, ACTR2 / RFU, PPP3R1 / Fold change vs veh, PPP3R1 / RFU, PIK3R1 / Fold change vs veh, PIK3R1 / RFU, HNRNPA1 / Fold change vs veh, HNRNPA1 / RFU, RNF170 / Fold change vs veh, RNF170 / RFU, ZNF28 / Fold change vs veh, ZNF28 / RFU, RNGTT / Fold change vs veh, RNGTT / RFU, OGT / Fold change vs veh, OGT / RFU, BRD1 / Fold change vs veh, BRD1 / RFU, MARS / Fold change vs veh, MARS / RFU, ZNF655 / Fold change vs veh, ZNF655 / RFU, FAHD1 / Fold change vs veh, FAHD1 / RFU, BDP1 / Fold change vs veh, BDP1 / RFU, LRRCC1 / Fold change vs veh, LRRCC1 / RFU, ARID1A / Fold change vs veh, ARID1A / RFU, ZNF146 / Fold change vs veh, ZNF146 / RFU, ZNF330 / Fold change vs veh, ZNF330 / RFU, GPN3 / Fold change vs veh, GPN3 / RFU, C9orf123 / Fold change vs veh, C9orf123 / RFU, N4BP2L2 / Fold change vs veh, N4BP2L2 / RFU, ARFIP1 / Fold change vs veh, ARFIP1 / RFU, FAM179B / Fold change vs veh, FAM179B / RFU, BCL10 / Fold change vs veh, BCL10 / RFU, UHRF1BP1L / Fold change vs veh, UHRF1BP1L / RFU, BET1 / Fold change vs veh, BET1 / RFU, CNOT2 / Fold change vs veh, CNOT2 / RFU, ZNF268 / Fold change vs veh, ZNF268 / Fold change vs veh, ZNF507 / RFU, DGCR2 / Fold change vs veh, DGCR2 / RFU, WDSUB1 / Fold change vs veh, WDSUB1 / Fold change vs veh, HSP90B1 /// MIR3652 / RFU, ADSS / Fold change vs veh, ADSS / RFU, GK / Fold change vs veh, GK / RFU, ZNF148 / Fold change vs veh, ZNF148 / RFU, TAF9 / Fold change vs veh, TAF9 / RFU, SLC1A5 / Fold change vs veh, SLC1A5 / RFU, SLMO2 / Fold change vs veh, SLMO2 / RFU, ABCC4 / Fold change vs veh, ABCC4 / RFU, LOC101060439 /// RAP1B / Fold change vs veh, LOC101060439 /// RAP1B / RFU, RFX7 / Fold change vs veh, RFX7 / RFU, GTPBP10 / Fold change vs veh, GTPBP10 / RFU, CNEP1R1 / Fold change vs veh, CNEP1R1 / RFU, BIVM-ERCC5 /// ERCC5 / Fold change vs veh, BIVM-ERCC5 /// ERCC5 / RFU, ILF3 / Fold change vs veh, ILF3 / RFU 11762660_at / Fold change /veh 11762660_at / RFU VCAN (11757783_s_at) / Fold change /veh VCAN (11757783_s_at) / RFU DDX43 (11728927_at) / Fold change /veh DDX43 (11728927_at) / RFU KRT8 (11758188_x_at) / Fold change /veh KRT8 (11758188_x_at) / RFU NKD1 (11759106_at) / Fold change /veh NKD1 (11759106_at) / RFU SRD5A1 (11742802_a_at) / Fold change /veh SRD5A1 (11742802_a_at) / RFU TPSAB1 /// TPSB2 (11721975_s_at) / Fold change /veh TPSAB1 /// TPSB2 (11721975_s_at) / RFU GSTM3 (11746129_a_at) / Fold change /veh GSTM3 (11746129_a_at) / RFU IL23R (11737362_x_at) / Fold change /veh IL23R (11737362_x_at) / RFU TMEM51 (11727254_a_at) / Fold change /veh TMEM51 (11727254_a_at) / RFU PIWIL2 (11732686_x_at) / Fold change /veh PIWIL2 (11732686_x_at) / RFU ORM1 (11744905_x_at) / Fold change /veh ORM1 (11744905_x_at) / RFU CCDC152 (11743942_at) / Fold change /veh CCDC152 (11743942_at) / RFU ECM1 (11717891_a_at) / Fold change /veh ECM1 (11717891_a_at) / RFU IL23R (11748794_a_at) / Fold change /veh IL23R (11748794_a_at) / RFU TNFAIP8L3 (11732012_x_at) / Fold change /veh TNFAIP8L3 (11732012_x_at) / RFU MBOAT4 (11741988_at) / Fold change /veh MBOAT4 (11741988_at) / RFU 11764193_at / Fold change /veh 11764193_at / RFU TMEM53 (11763286_at) / Fold change /veh TMEM53 (11763286_at) / RFU MAGEB2 (11727129_at) / Fold change /veh MAGEB2 (11727129_at) / RFU TMEM200A (11744735_a_at) / Fold change /veh TMEM200A (11744735_a_at) / RFU CCDC152 (11751479_a_at) / Fold change /veh CCDC152 (11751479_a_at) / RFU FAM211A (11726209_a_at) / Fold change /veh FAM211A (11726209_a_at) / RFU RGS16 (11746705_a_at) / Fold change /veh RGS16 (11746705_a_at) / RFU VCAN (11755009_s_at) / Fold change /veh VCAN (11755009_s_at) / RFU RHOB (11743442_s_at) / Fold change /veh RHOB (11743442_s_at) / RFU RGS16 (11720943_a_at) / Fold change /veh RGS16 (11720943_a_at) / RFU RGS16 (11720944_at) / Fold change /veh RGS16 (11720944_at) / RFU, VPS4B / Fold change vs veh, VPS4B / RFU, CREB1 / Fold change vs veh, CREB1 / RFU, DNAJC13 / Fold change vs veh, DNAJC13 / RFU, GNAQ / Fold change vs veh, GNAQ / RFU, CDK5R1 / Fold change vs veh, CDK5R1 / RFU, ZRANB3 / Fold change vs veh, ZRANB3 / RFU, CUL4A / Fold change vs veh, CUL4A / RFU, CCNY / Fold change vs veh, CCNY / RFU, UFL1 / Fold change vs veh, UFL1 / RFU, COG3 / Fold change vs veh, COG3 / RFU, DIAPH2 / Fold change vs veh, DIAPH2 / RFU, SKA2 / Fold change vs veh, SKA2 / RFU, AFF3 / Fold change vs veh, AFF3 / RFU, LMF1 / Fold change vs veh, LMF1 / RFU, IPO11 / Fold change vs veh, IPO11 / RFU, DFFB / Fold change vs veh, DFFB / RFU, FOXP1 / Fold change vs veh, FOXP1 / RFU, CARD8 / Fold change vs veh, CARD8 / RFU, STRN3 / Fold change vs veh, STRN3 / RFU, ADK / Fold change vs veh, ADK / RFU, RASSF2 / Fold change vs veh, RASSF2 / RFU, WIPF1 / Fold change vs veh, WIPF1 / RFU, LARP1B / Fold change vs veh, LARP1B / RFU, RASA1 / Fold change vs veh, RASA1 / RFU, RB1 / Fold change vs veh, RB1 / RFU, PPFIA1 / Fold change vs veh, PPFIA1 / RFU, MAT2A / Fold change vs veh, MAT2A / RFU, CCT5 / Fold change vs veh, CCT5 / RFU, WDR92 / Fold change vs veh, WDR92 / RFU, CUX1 / Fold change vs veh, CUX1 / RFU, TTC7A / Fold change vs veh, TTC7A / RFU, TMEM135 / Fold change vs veh, TMEM135 / RFU, DEPTOR / Fold change vs veh, DEPTOR / RFU, CPM / Fold change vs veh, CPM / RFU, DNAJB6 / Fold change vs veh, DNAJB6 / RFU, CACNA2D3 / Fold change vs veh, CACNA2D3 / RFU, DTX4 / Fold change vs veh, DTX4 / RFU, TFCP2 / Fold change vs veh, TFCP2 / RFU, GMCL1 /// GMCL1P1 / Fold change vs veh, GMCL1 /// GMCL1P1 / RFU, AEBP2 / Fold change vs veh, AEBP2 / RFU, SNHG1 /// SNORD22 /// SNORD25 /// SNORD26 /// SNORD27 /// SNORD28 /// SNORD29 /// SNORD31 / Fold change vs veh, SNHG1 /// SNORD22 /// SNORD25 /// SNORD26 /// SNORD27 /// SNORD28 /// SNORD29 /// SNORD31 / Fold change (Aza/veh), C12orf56 (ProbeSet 11735607_a_at) / Fold change (ACY-1035/veh), C12orf56 (ProbeSet 11735607_a_at) / Fold change (Aza/veh), FGFR1OP (ProbeSet 11751329_s_at) / Fold change (ACY-1035/veh), FGFR1OP (ProbeSet 11751329_s_at) / Fold change (Aza/veh), VPS36 (ProbeSet 11739960_a_at) / Fold change (ACY-1035/veh), VPS36 (ProbeSet 11739960_a_at) / RFU SYPL1 (11715823_x_at) / Fold change /veh SYPL1 (11715823_x_at) / RFU IGFBP7 (11715501_s_at) / Fold change /veh IGFBP7 (11715501_s_at) / RFU REEP3 (11722064_at) / Fold change /veh REEP3 (11722064_at) / RFU IGLL1 (11728026_x_at) / Fold change /veh IGLL1 (11728026_x_at): dose or concentration left out as unconfirmed
Conditions: ProbeSet 11723944_a_at; LIST B

Nc1ncn([C@@H]2O[C@H](CO)[C@@H](O)[C@H]2O)c(=O)n1 [azacitidine]
Fold change vs veh, PTTG1IP: 0.86

From PMC5218480 (PLoS ONE, 2017)
